Experimental data as given in ChEMBL document CHEMBL1201862, “PubChem BioAssay data set” (2004).
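Assay format: 96-well plates, 48-hour exposure. At the GI50, growth is halved.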 Activity calls are given as the source filed them. Rule as the data show it: active = GI50 up to about 1.1 µM and inactive = higher.

What was measured:
Assay in all cases: DTP human tumour cell line panel, 48 h
A549 = test system: A549
SN12C = test system: SN12C
HCC 2998 = test system: HCC 2998
SK-OV-3 = test system: SK-OV-3
LOX IMVI = test system: LOX IMVI
A498 = test system: A498
DU-145 = test system: DU-145
SNB-75 = test system: SNB-75
BT-549 = test system: BT-549
RXF 393 = test system: RXF 393
M14 = test system: M14
EKVX = test system: EKVX
SK-MEL-28 = test system: SK-MEL-28
RPMI-8226 = test system: RPMI-8226
MDA-MB-435 = test system: MDA-MB-435
CCRF-CEM = test system: CCRF-CEM
SF-295 = test system: SF-295
HOP-92 = test system: HOP-92
MDA-N = test system: MDA-N
NCI-H522 = test system: NCI-H522

Measured: GI50

O=c1[nH]c(=O)c2ncn(-c3ccc([N+](=O)[O-])cn3)c2[nH]1
inactive: A549 > 100 µM | SN12C > 100 µM | HCC 2998 > 100 µM | SK-OV-3 > 100 µM | LOX IMVI > 100 µM | A498 > 100 µM | DU-145 > 100 µM | SNB-75 > 100 µM | BT-549 > 100 µM | RXF 393 > 100 µM | M14 > 100 µM | EKVX > 100 µM | SK-MEL-28 > 100 µM | RPMI-8226 > 100 µM | MDA-MB-435 > 100 µM | CCRF-CEM > 100 µM | SF-295 > 100 µM | HOP-92 > 100 µM

O=c1[nH]c2ccc(CC(=S)N3CCOCC3)cc2s1
inactive: SN12C > 100 µM | SK-OV-3 > 100 µM | LOX IMVI > 100 µM | A498 > 100 µM | DU-145 > 100 µM | BT-549 > 100 µM | RXF 393 > 100 µM | MDA-N > 100 µM | M14 > 100 µM | EKVX > 100 µM | SK-MEL-28 > 100 µM | RPMI-8226 > 100 µM | MDA-MB-435 > 100 µM | CCRF-CEM > 100 µM | SF-295 > 100 µM

CCOC(=O)c1cn2c(n1)sc1cccc(C)c12
inactive: A549 > 100 µM | HCC 2998 > 100 µM | SK-OV-3 > 100 µM | LOX IMVI > 100 µM | DU-145 > 100 µM | SNB-75 > 100 µM | BT-549 > 100 µM | RXF 393 > 100 µM | NCI-H522 > 100 µM | MDA-N > 100 µM | M14 > 100 µM | EKVX 52.6 µM | SF-295 > 100 µM

CCOC(=O)c1nc2ccccc2nc1NCc1ccc(Cl)cc1Cl
inactive: A549 > 100 µM | SK-OV-3 > 100 µM | LOX IMVI > 100 µM | A498 > 100 µM | SNB-75 23.6 µM | BT-549 > 100 µM | RXF 393 > 100 µM | NCI-H522 > 100 µM | MDA-N 96.8 µM | M14 > 100 µM | EKVX > 100 µM | RPMI-8226 > 100 µM | MDA-MB-435 97.9 µM | CCRF-CEM > 100 µM | SF-295 > 100 µM | HOP-92 > 100 µM

COC(=O)C1=C(N)C2=C(N)Oc3ccccc3C2CC1=C(C#N)C#N (configuration not stated)
inactive: A549 32.6 µM | SN12C 29 µM | HCC 2998 17.9 µM | SK-OV-3 31.4 µM | LOX IMVI 18.8 µM | A498 25.8 µM | DU-145 26.5 µM | SNB-75 18 µM | BT-549 23.4 µM | RXF 393 26 µM | NCI-H522 15.8 µM | M14 19.4 µM | EKVX 29.1 µM | RPMI-8226 19.1 µM | MDA-MB-435 34.8 µM | CCRF-CEM 24.2 µM | SF-295 25 µM

COC1OC(Cc2nnc(C)o2)C(OCc2ccccc2)C(OCc2ccccc2)C1OCc1ccccc1 (configuration not stated)
inactive: A549 27.2 µM | SN12C 28.3 µM | SK-OV-3 77.4 µM | LOX IMVI 20.1 µM | A498 50.9 µM | DU-145 40.8 µM | SNB-75 74.3 µM | BT-549 25.7 µM | RXF 393 18.3 µM | NCI-H522 19.4 µM | M14 31 µM | EKVX 12.7 µM | SK-MEL-28 22.9 µM | RPMI-8226 32.4 µM | MDA-MB-435 19.7 µM | CCRF-CEM 21.7 µM | SF-295 18.9 µM | HOP-92 35.3 µM

COc1ccc2c(c1OC(C)=O)C1=CC(=O)CCC13CCNC3C2 (configuration not stated)
inactive: A549 > 100 µM | SN12C > 100 µM | HCC 2998 > 100 µM | SK-OV-3 > 100 µM | LOX IMVI > 100 µM | DU-145 > 100 µM | SNB-75 > 100 µM | BT-549 > 100 µM | RXF 393 > 100 µM | NCI-H522 > 100 µM | MDA-N > 100 µM | M14 > 100 µM | EKVX > 100 µM | SK-MEL-28 > 100 µM | RPMI-8226 > 100 µM | MDA-MB-435 > 100 µM | CCRF-CEM > 100 µM | SF-295 > 100 µM | HOP-92 > 100 µM

CC(C)(C)c1cc2c(O)c(c1)COCc1cc(C(C)(C)C)cc(c1O)COCc1cc(C(C)(C)C)cc(c1O)COC2
inactive: A549 > 100 µM | HCC 2998 > 100 µM | SK-OV-3 > 100 µM | LOX IMVI 29.4 µM | A498 46.6 µM | DU-145 32.5 µM | SNB-75 9.35 µM | BT-549 > 100 µM | RXF 393 32.4 µM | M14 88.5 µM | EKVX > 100 µM | SK-MEL-28 > 100 µM | RPMI-8226 50.4 µM | MDA-MB-435 > 100 µM | CCRF-CEM 59 µM | SF-295 > 100 µM | HOP-92 > 100 µM

Cc1ccc(-n2c(Cn3nnc(-c4cccnc4)n3)nn(C3OC(COC(=O)c4ccccc4)C(OC(=O)c4ccccc4)C3OC(=O)c3ccccc3)c2=S)cc1 (configuration not stated)
inactive: A549 > 100 µM | SN12C > 100 µM | HCC 2998 > 100 µM | SK-OV-3 > 100 µM | LOX IMVI > 100 µM | DU-145 > 100 µM | SNB-75 52.6 µM | BT-549 > 100 µM | RXF 393 > 100 µM | NCI-H522 > 100 µM | MDA-N > 100 µM | M14 > 100 µM | EKVX > 100 µM | SK-MEL-28 > 100 µM | RPMI-8226 > 100 µM | MDA-MB-435 > 100 µM | CCRF-CEM > 100 µM | SF-295 > 100 µM

O=C(O)C(F)(OC(F)(F)C(F)(F)C(F)(F)F)C(F)(F)F (configuration not stated)
inactive: A549 > 100 µM | SN12C > 100 µM | HCC 2998 > 100 µM | SK-OV-3 > 100 µM | LOX IMVI > 100 µM | A498 > 100 µM | DU-145 > 100 µM | SNB-75 > 100 µM | BT-549 > 100 µM | RXF 393 > 100 µM | NCI-H522 > 100 µM | M14 > 100 µM | EKVX > 100 µM | SK-MEL-28 > 100 µM | RPMI-8226 > 100 µM | MDA-MB-435 > 100 µM | SF-295 > 100 µM | HOP-92 > 100 µM

CC(=O)C1C(=O)C(=O)N(c2ccc(Br)cc2)C1=O (configuration not stated)
inactive: A549 > 100 µM | SN12C > 100 µM | HCC 2998 > 100 µM | SK-OV-3 > 100 µM | LOX IMVI > 100 µM | DU-145 > 100 µM | SNB-75 > 100 µM | BT-549 > 100 µM | RXF 393 > 100 µM | NCI-H522 > 100 µM | MDA-N > 100 µM | M14 > 100 µM | EKVX > 100 µM | SK-MEL-28 > 100 µM | MDA-MB-435 > 100 µM | CCRF-CEM > 100 µM | SF-295 > 100 µM | HOP-92 > 100 µM
